Substitutions are numbered along the chain they refer to. Read-outs that look alike come from different tables or passages of the source.
Tests used:
GCase [1] = biological target: T1, GCase (Homo sapiens, UniProt P04062); experiment: Inhibitory activity against GCase (4-methylumbelliferyl β-glucoside substrate); format: biochemical; conditions: for IC50: human GCase, 3 mM 4-MU β-glucoside, pH 5.2, 37° C., 30 min; for increase of inhibitory potency relative to 2-PE-GIZ: phenylethyl group replaced with octyl or dimethylbutyl at the same position
T1 sequence (P04062 40-536): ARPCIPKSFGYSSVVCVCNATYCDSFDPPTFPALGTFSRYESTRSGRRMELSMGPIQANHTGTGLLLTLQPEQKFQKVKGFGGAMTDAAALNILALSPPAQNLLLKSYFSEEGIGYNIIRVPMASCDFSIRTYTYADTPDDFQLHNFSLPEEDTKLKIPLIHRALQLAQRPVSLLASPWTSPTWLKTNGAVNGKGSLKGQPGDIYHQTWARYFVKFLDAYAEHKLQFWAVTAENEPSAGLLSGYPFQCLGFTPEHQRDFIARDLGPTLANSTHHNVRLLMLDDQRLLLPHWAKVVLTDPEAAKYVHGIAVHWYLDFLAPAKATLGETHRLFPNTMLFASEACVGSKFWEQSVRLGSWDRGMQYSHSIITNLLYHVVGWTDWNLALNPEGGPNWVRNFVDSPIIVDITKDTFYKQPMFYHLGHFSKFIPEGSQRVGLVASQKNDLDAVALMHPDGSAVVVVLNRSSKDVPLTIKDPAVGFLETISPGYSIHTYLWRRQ
Description: Methods. […] The compounds were added to each reaction mixture individually at the final concentration indicated. After incubation with the diluted human GCase at 37° C. for 30 min, the reaction was stopped by addition of 0.2 M glycine buffer, pH 10.8, the released 4-methylumbelliferone was determined by a fluoremeter at excitation wavelength of 355 nm and emission wavelength at 460 nm, respectively. The relative enzyme activity was calculated as a percentage to those of reactions without inhibitors. IC50 was calculated using Prism sigmoid plot.

[2] = biological target: T2, GCase in fibroblasts from Gaucher patients with N370S/N370S mutation (Homo sapiens, UniProt P04062, N409S); experiment: Chaperone activity for GCase in Gaucher patient fibroblasts (residual enzyme activity); format: cell-based; conditions: cultured with compound for 4 days
T2 construct: endogenous in cells; host or cells: fibroblasts from Gaucher patients homozygous for N370S
T2 sequence (P04062 40-536 N409S): T1 sequence (P04062 40-536) with N370S
Description: Methods. Fibroblasts established from Gaucher patients with N370S/N370S mutation were cultured in DMEM medium supplemented with 10% fetal bovine serum and antibiotics at 37° C. under 5% CO2. The GIZ was added into the culture medium at the final concentrations for 4 days prior to the assay. After washing the cells with phosphate-buffered saline, the cells were harvested and homogenized in the presence of 0.25% (w/v) sodium taurocholate and 0.1% (v/v) Triton X-100 in McIlvaine buffer (pH 5.2, Reaction Buffer), and 10 μl of the lysate was used for the determination of residual enzyme activity. The activity of the GCase was determined with 3 mM 4-MU-β-Glc in the Reaction Buffer at 37° C. for 1 hr as conduritol B epoxide (CBE)-sensitive activity in parallel assays without or with pre-incubation with CBE at 1.25 mM for 30 min at room temperature. Protein concentrations in the cell lysates were determined using micro BCA protein assay kit from Pierce.

[3] = shortly after the start of the treatment; cited from earlier work
GCase [4] = biological target: T1, GCase; conditions: literature values (Ogawa et al.); read-out: IC50 against GCase; cited from earlier work

Row | IC50 (GCase [1]) | increase of inhibitory potency relative to 2-PE-GIZ (GCase [1]) | SMILES | other results
1 | 0.03 nM | ~37 fold | CC(C)(C)CCc1cn2c(n1)[C@H](O)[C@@H](O)[C@H](O)[C@H]2CO [2-Dimethylbutyl GIZ, (5R,6R,7S,8S)-5-Hydroxymethyl-2-(3,3-dimethylbutyl)-5,6,7,8-tetrahydroimidazo[1,2-a]pyridine-6,7,8-triol] | –
2 | 0.07 nM | approximately 15 fold | CCCCCCCCc1cn2c(n1)[C@H](O)[C@@H](O)[C@H](O)[C@H]2CO [2-Octyl GIZ, (5R,6R,7S,8S)-5-Hydroxymethyl-2-n-octyl-5,6,7,8-tetrahydroimidazo[1,2-a]pyridine-6,7,8-triol] | –
3 | 1.1 nM | – | OC[C@@H]1[C@@H](O)[C@H](O)[C@@H](O)c2nc(CCc3ccccc3)cn21 [2-Phenylethyl GIZ, (5R,6R,7S,8S)-5-hydroxymethyl-2-phenethyl-5,6,7,8-tetrahydroimidazo[1,2-a]pyridine-6,7,8-triol] | –
4 | – | – | CCCCN1C[C@H](O)[C@@H](O)[C@H](O)[C@H]1CO [N-butyl 1-deoxynojirimycin (NB-DNJ), N-butyl 1-deoxynojirimycin] | patients with diarrhea (most frequent adverse effect) [3]: 79%
5 | – | – | CCCCCCCCN[C@@H]1C=C(CO)[C@@H](O)[C@H](O)[C@H]1O [N-octyl valienamine] | IC50 (GCase [4]): ~300 nM

Row | SMILES | IC50 (GCase [1]) | increase of inhibitory potency relative to 2-PE-GIZ (GCase [1]) | other results
6 | OC[C@@H]1[C@@H](O)[C@H](O)[C@@H](O)c2nccn21 [GIZ, (5R,6R,7S,8S)-5-hydroxymethyl-5,6,7,8-tetrahydroimidazo[1,2-a]pyridine-6,7,8-triol] | 87 nM | – | increase of residual enzyme activity in patient cells [2]: approximately 2 fold; optimal concentration for the maximum enhancement [2]: ~300 µM

Reference: patent US20050137223A1, “Glucoimidazole and polyhydroxycyclohexenyl amine derivatives to treat gaucher disease” (Amicus Therapeutics, Inc., priority 2003, published 2005)
